Results on 60 compounds are retold here after patent publication USRE50050E1, “Pyrimidinedione compounds” (MyoKardia, Inc., priority 2013, dated 2024).

Each structure is given as a SMILES string.

T1 sequence (Q9BE39 whole entry): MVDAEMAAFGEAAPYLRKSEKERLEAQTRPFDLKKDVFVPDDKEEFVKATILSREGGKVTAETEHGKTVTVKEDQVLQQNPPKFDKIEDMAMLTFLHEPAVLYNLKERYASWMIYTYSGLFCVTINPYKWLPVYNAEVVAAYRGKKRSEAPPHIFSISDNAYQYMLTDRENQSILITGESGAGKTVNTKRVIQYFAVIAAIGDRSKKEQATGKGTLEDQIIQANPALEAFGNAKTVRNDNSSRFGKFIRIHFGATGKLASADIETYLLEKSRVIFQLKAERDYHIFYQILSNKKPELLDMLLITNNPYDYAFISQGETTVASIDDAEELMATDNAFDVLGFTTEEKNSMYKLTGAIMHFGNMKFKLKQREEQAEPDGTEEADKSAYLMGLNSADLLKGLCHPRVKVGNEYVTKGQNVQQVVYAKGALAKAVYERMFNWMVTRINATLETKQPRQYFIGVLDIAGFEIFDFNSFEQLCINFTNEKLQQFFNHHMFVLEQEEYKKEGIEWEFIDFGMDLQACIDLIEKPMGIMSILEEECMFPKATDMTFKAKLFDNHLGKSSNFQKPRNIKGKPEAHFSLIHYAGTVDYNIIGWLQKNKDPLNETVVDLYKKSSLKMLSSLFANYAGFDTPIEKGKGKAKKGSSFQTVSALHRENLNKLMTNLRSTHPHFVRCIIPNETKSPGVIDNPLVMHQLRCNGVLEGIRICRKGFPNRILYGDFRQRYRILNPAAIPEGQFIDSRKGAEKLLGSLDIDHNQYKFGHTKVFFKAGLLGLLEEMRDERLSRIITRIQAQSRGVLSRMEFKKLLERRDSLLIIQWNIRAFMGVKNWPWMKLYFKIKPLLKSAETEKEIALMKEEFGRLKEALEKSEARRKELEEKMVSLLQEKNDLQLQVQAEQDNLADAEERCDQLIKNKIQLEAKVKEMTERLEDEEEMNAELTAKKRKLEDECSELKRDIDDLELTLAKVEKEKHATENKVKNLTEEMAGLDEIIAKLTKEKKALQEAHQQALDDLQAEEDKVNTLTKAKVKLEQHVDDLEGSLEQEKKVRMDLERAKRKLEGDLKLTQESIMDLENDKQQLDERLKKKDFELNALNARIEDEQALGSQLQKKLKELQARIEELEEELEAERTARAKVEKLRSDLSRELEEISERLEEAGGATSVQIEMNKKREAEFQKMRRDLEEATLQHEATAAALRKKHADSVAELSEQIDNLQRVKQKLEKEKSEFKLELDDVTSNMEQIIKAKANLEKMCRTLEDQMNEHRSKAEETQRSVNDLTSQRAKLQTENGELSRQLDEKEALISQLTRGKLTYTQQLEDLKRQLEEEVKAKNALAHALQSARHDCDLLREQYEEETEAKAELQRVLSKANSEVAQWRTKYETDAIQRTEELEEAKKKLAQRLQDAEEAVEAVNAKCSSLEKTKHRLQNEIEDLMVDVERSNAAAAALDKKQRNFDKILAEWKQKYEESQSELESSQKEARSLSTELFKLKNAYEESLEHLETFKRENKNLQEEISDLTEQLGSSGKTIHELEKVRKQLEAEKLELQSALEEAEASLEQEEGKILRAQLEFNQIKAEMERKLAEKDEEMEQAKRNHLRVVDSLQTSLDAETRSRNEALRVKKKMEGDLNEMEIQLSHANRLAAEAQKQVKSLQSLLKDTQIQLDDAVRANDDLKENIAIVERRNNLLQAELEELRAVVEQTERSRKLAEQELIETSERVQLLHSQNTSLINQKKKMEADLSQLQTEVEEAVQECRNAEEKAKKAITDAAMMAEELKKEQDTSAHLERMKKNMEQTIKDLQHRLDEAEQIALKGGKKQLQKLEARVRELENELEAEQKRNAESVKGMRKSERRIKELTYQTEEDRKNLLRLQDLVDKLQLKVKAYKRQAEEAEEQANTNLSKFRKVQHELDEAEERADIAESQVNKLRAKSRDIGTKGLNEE
T1 sequence (P85100 whole entry partner): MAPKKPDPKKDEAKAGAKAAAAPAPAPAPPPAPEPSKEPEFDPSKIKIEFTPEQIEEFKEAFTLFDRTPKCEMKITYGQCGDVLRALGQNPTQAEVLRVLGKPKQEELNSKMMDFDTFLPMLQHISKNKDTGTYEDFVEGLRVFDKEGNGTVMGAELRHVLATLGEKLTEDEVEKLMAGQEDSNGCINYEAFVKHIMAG
T1 sequence (Q3SZE5 whole entry partner): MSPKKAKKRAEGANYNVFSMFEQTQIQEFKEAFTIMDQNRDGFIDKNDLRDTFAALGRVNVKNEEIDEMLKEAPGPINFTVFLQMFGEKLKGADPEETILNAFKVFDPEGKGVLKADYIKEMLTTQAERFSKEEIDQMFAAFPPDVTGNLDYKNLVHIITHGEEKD

The first assay concerns the target T1, bovine cardiac myosin (Bos taurus, UniProt Q9BE39).
T1 construct: The source of cardiac myosin was from bovine heart in the form of skinned myofibrils; from tissue; host or cells: bovine heart, skinned myofibrils
Nature of the assay: Myosin inhibition assay (PK/LDH-coupled ATPase, bovine cardiac myofibrils). It counts as biochemical. As to conditions: bovine cardiac myofibrils, calcium giving 50% activation (pCa50); read-out: Biochemical Activity (pCa50).
Protocol: Small molecule agents were assessed for their ability to inhibit the enzymatic activity of bovine cardiac myosin using a biochemical assay that couples the release of ADP (adenosine diphosphate) from cardiac myosin to an enzymatic coupling system consisting of pyruvate kinase and lactate dehydrogenase (PK/LDH) and monitoring the absorbance decrease of NADH (at 340 nm) as a function of time. PK converts ADP to ATP (adenosine triphosphate) by converting PEP (phosphoenolpyruvate) to pyruvate. Pyruvate is then converted to lactate by LDH by converting NADH (nicotinamide adenine dinucleotide) to NAD (oxidized nicotinamide adenine dinucleotide). The source of cardiac myosin was from bovine heart in the form of skinned myofibrils. Prior to testing small molecule agents, the bovine myofibrils were assessed for their calcium responsiveness and the calcium concentration that achieves either a 50% (pCa50) or 75% (pCa75) activation of the myofibril system was chosen as the final condition for assessing the inhibitory activity of the small molecule agents. All enzymatic activity was measured in a buffered solution containing 12 mM PIPES (piperazine-N,N′-bis(2-ethanesulfonic acid), 2 mM magnesium chloride at pH 6.8 (PM 12 buffer). Final assay conditions were 1 mg/mL of bovine cardiac myofibrils, 0.4 mM PK/LDH, 50 uM ATP, 0.1 mg/mL BSA (bovine serum albumin), 10 ppm antifoam, 1 mM DTT, 0.5 mM NADH, 1.5 mM PEP at the desired free calcium concentration required to achieve either 50% or 75% activation of the myofibrils.
A dilution series of compound was created in DMSO such that the final desired concentration of compound would be achieved in a volume of 100 μL with a fixed DMSO concentration of 2% (v/v). Typically 2 μL of the dilution series were added to 96 well plate to achieve an 8 or 12 point dose response. Following the addition of 50 μL of a solution containing bovine cardiac myofibrils, PK/LDH and a solution of calcium (that achieved the desired activation), the enzymatic reaction was started with the addition of 50 μL of a solution containing ATP, PEP and NADH. The reaction progress was followed in a Molecular Devices M5e plate reader at ambient temperature using clear half area plates. The plate reader was configured to read absorbance at 340 nm in kinetics mode for 15 minutes. Data were recorded as the slope of the absorbance response to time. The slopes of the absorbance response as a function of time were normalized to slopes on the plate containing DMSO. This normalized rate was then plotted as a function of small molecule concentration and the data was fitted to a four-parameter fit using GraphPad Prism. The midpoint of this plot is the 1050 and is the concentration at which fifty percent of the total response is inhibited.
As to `C[C@H](Nc1cc(=O)n([C@@H](C)C2CC2)c(=O)[nH]1)c1ccccc1` [Compound 105], the IC50 was less than 1000 nM.

Regarding `C[C@@H](Cc1ccc(F)cc1)Nc1cc(=O)n(-c2cc(F)cc(F)c2)c(=O)[nH]1` [Compound 118], the IC50 is less than 1000 nM.

Regarding `CCCn1c(=O)cc(N[C@@H](C)c2cccc(C(F)(F)F)c2)[nH]c1=O` [Compound 131], the IC50 is less than 1000 nM.

As for `C[C@H](Nc1cc(=O)n(C2CCC2)c(=O)[nH]1)c1ccc(F)cc1` [Compound 132], the IC50 is less than 1000 nM.

For `CC(C)n1c(=O)cc(N[C@@H](C)c2ccc3c(c2)OC(F)(F)O3)[nH]c1=O` [Compound 119], the IC50 is less than 1000 nM.

For `CC[C@H](Nc1cc(=O)n(CC(F)(F)F)c(=O)[nH]1)c1ccccc1` [Compound 109], the IC50 is 1000 to 15000 nM.

In the case of `C[C@H](Nc1cc(=O)n(CC(F)F)c(=O)[nH]1)c1ccccc1` [Compound 66, (S)-3-(2,2-difluoroethyl)-6-((1-phenylethyl)amino)pyrimidine-2,4(1H,3H)-dione], the IC50 was 1000 to 15000 nM.

On to `CC[C@H](Nc1cc(=O)n(CC)c(=O)[nH]1)c1ccccc1` [Compound 36], for which the IC50 lay within 1000 to 15000 nM.

In the case of `CC(C)n1c(=O)cc(N[C@@H](C)c2ccc3c(c2)OCO3)[nH]c1=O` [Compound 107], the IC50 was less than 1000 nM.

`C[C@H](Nc1cc(=O)n([C@@H](C)CO)c(=O)[nH]1)c1ccccc1` [Compound 92]: the IC50 fell in the range of 1000 to 15000 nM.

`C[C@H](Nc1cc(=O)n(-c2cccc(F)n2)c(=O)[nH]1)c1ccccc1` [Compound 137]: the IC50 is less than 1000 nM.

For `CC(C)n1c(=O)cc(N[C@@H](C)c2ccccc2Cl)[nH]c1=O` [Compound 120], the IC50 is less than 1000 nM.

`C[C@H](Nc1cc(=O)n(Cc2ccccc2)c(=O)[nH]1)c1ccccc1` [Compound 57, (S)-3-benzyl-6-((1-phenylethyl)amino)pyrimidine-2,4(1H,3H)-dione]: the IC50 lay in the range of 1000 to 15000 nM.

For `C[C@H](Nc1cc(=O)n([C@H](C)C2CC2)c(=O)[nH]1)c1ccccc1` [Compound 104], the IC50 is less than 1000 nM.

Take `O=c1cc(N[C@H](c2ccccc2)C2CC2)[nH]c(=O)n1CC(F)(F)F` [Compound 111]: the IC50 fell in the range of 1000 to 15000 nM.

Turning to `CCn1c(=O)cc(N[C@H](c2ccccc2)C2CC2)[nH]c1=O` [Compound 122], the IC50 is 1000 to 15000 nM.

Take `C[C@H](Nc1cc(=O)n(C2(C(F)(F)F)CC2)c(=O)[nH]1)c1ccccc1` [Compound 117]: the IC50 was less than 1000 nM.

Regarding `CCCn1c(=O)cc(N[C@@H](C)c2cccc(Cl)c2)[nH]c1=O` [Compound 130], the IC50 was less than 1000 nM.

With `COc1ccc([C@H](C)Nc2cc(=O)n(C(C)C)c(=O)[nH]2)cc1` [Compound 121], the IC50 was less than 1000 nM.

For the compound `C[C@H](n1c(=O)cc(N[C@@H](C)Cc2ccc(F)cc2)[nH]c1=O)C(F)(F)F` [Compound 114], the IC50 is less than 1000 nM.

In the case of `CCn1c(=O)cc(N[C@@H](C)c2cccc(Cl)c2)[nH]c1=O` [Compound 123], the IC50 was less than 1000 nM.

As for `CCn1c(=O)cc(N[C@@H](C)c2ccc(F)c(F)c2)[nH]c1=O` [Compound 134], the IC50 was less than 1000 nM.

As to `CCn1c(=O)cc(N[C@@H](C)c2ccc3c(c2)OCO3)[nH]c1=O` [Compound 108], the IC50 was less than 1000 nM.

With `CC[C@H](Nc1cc(=O)n([C@@H](C)C(F)(F)F)c(=O)[nH]1)c1ccccc1` [Compound 103], the IC50 is less than 1000 nM.

Still in this assay, the particulars now being: bovine cardiac myofibrils, calcium giving 75% activation (pCa75); read-out: Biochemical Activity (pCa75).
`C[C@H](Nc1cc(=O)n(-c2ccno2)c(=O)[nH]1)c1ccccc1` [Compound 40]: the IC50 was less than 1000 nM.

As for `C[C@H](Nc1cc(=O)n(-c2ccon2)c(=O)[nH]1)c1ccccc1` [Compound 16, (S)-3-(Isoxazol-3-yl)-6-(1-phenylethylamino)pyrimidine-2,4(1H,3H)-dione], the IC50 was in the range of 1000 to 15000 nM.

With `CC(C)n1c(=O)cc(N[C@@H](C)c2cccc(Cl)c2)[nH]c1=O` [Compound 28], the IC50 is less than 1000 nM.

`CC(C)n1c(=O)cc(N[C@@H](C)c2ccccc2C#N)[nH]c1=O` [Compound 56, (S)-3-isopropyl-6-((1-(2-cyanophenyl)ethyl)amino)pyrimidine-2,4(1H,3H)-dione]: the IC50 is more than 15000 nM.

`CC(C)n1c(=O)cc(N[C@@H](C)c2cc(F)cc(F)c2)[nH]c1=O` [Compound 5, (S)-6-((1-(3,5-Difluorophenyl)ethyl)amino)-3-isopropylpyrimidine-2,4(1H,3H)-dione]: the IC50 was less than 1000 nM.

As for `CC(C)n1c(=O)cc(N[C@@H](C)CCc2ccccc2)[nH]c1=O` [Compound 85], the IC50 was less than 1000 nM.

Turning to `CC(C)n1c(=O)[nH]c(N[C@@H](C)c2cccc(Cl)c2)c(F)c1=O` [Compound 4, (S)-6-((1-(3-Chlorophenyl)ethyl)amino)-5-fluoro-3-isopropylpyrimidine-2,4(1H,3H)-dione], the IC50 was less than 1000 nM.

As for `C[C@H](Nc1cc(=O)n(C2CCN(C(=O)c3ccccc3)CC2)c(=O)[nH]1)c1ccccc1` [Compound 84], the IC50 is less than 1000 nM.

As for `CC(CC(F)(F)F)n1c(=O)cc(N[C@@H](C)c2ccccc2)[nH]c1=O` (some centres unmarked) [Compound 99], the IC50 was less than 1000 nM.

Turning to `C[C@H](Nc1cc(=O)n(-c2ccnnc2)c(=O)[nH]1)c1ccccc1` [Compound 73], the IC50 lay in the range of 1000 to 15000 nM.

Turning to `CC(C)n1c(=O)cc(N[C@@H](C)Cc2ccncc2)[nH]c1=O` [Compound 61, (S)-3-isopropyl-6-((1-(pyridin-4-yl)propan-2-yl)amino)pyrimidine-2,4(1H,3H)-dione], the IC50 is 1000 to 15000 nM.

For the compound `C[C@H](Nc1cc(=O)n(-c2ccn(C)n2)c(=O)[nH]1)c1ccccc1` [Compound 39], the IC50 was less than 1000 nM.

For the compound `CC[C@H](Nc1[nH]c(=O)n(C(C)C)c(=O)c1F)c1ccccc1` [Compound 31], the IC50 was less than 1000 nM.

For `C[C@H](Nc1cc(=O)n(C2CC2)c(=O)[nH]1)c1ccccc1` [Compound 37], the IC50 was in the range of 1000 to 15000 nM.

Consider `CCn1c(=O)cc(N[C@@H](C)c2ccccc2)[nH]c1=O` [Compound 46], for which the IC50 lay within 1000 to 15000 nM.

Take `C[C@H](Nc1cc(=O)n([C@H](C)COCc2ccccc2)c(=O)[nH]1)c1ccccc1` [Compound 53, 3-((R)-1-(benzyloxy)propan-2-yl)-6-(((S)-1-phenylethyl)amino)pyrimidine-2,4(1H,3H)-dione]: the IC50 fell in the range of 1000 to 15000 nM.

Take `CC(C)n1c(=O)cc(N[C@@H](C)c2cccc(-n3cccn3)c2)[nH]c1=O` [Compound 17, (S)-6-((1-(3-(1H-pyrazol-1-yl)phenyl)ethyl)amino)-3-isopropylpyrimidine-2,4(1H,3H)-dione]: the IC50 was less than 1000 nM.

For the compound `C[C@H](Nc1cc(=O)n([C@@H](C)CO)c(=O)[nH]1)c1ccccc1` [Compound 92], the IC50 fell in the range of 1000 to 15000 nM.

In the case of `COc1cccc([C@@H](Nc2cc(=O)n(C(C)C)c(=O)[nH]2)C2CC2)c1` [Compound 7, (S)-6-((cyclopropyl(3-methoxyphenyl)methyl)amino)-3-isopropylpyrimidine-2,4(1H,3H)-dione], the IC50 was less than 1000 nM.

Turning to `C[C@H](Nc1cc(=O)n(CC(F)(F)F)c(=O)[nH]1)c1ccccc1` [Compound 100], the IC50 fell in the range of 1000 to 15000 nM.

As to `CC(C)n1c(=O)cc(N[C@@H](C)c2ccc(F)cc2)[nH]c1=O` [Compound 30], the IC50 is less than 1000 nM.

Take `COc1cccc([C@H](C)Nc2cc(=O)n(C(C)C)c(=O)[nH]2)c1` [Compound 21]: the IC50 was less than 1000 nM.

For `C[C@H](Nc1cc(=O)n(-c2cccnc2)c(=O)[nH]1)c1ccccc1` [Compound 15, (S)-6-(1-phenylethylamino)-3-(pyridin-3-yl)pyrimidine-2,4(1H,3H)-dione], the IC50 is less than 1000 nM.

`C[C@H](Nc1cc(=O)n(C2CCCC2)c(=O)[nH]1)c1ccccc1` [Compound 80]: the IC50 is less than 1000 nM.

On to `C[C@H](Nc1cc(=O)n([C@H](C)C(F)(F)F)c(=O)[nH]1)c1ccccc1` [Compound 94], for which the IC50 was less than 1000 nM.

As for `CC(C)n1c(=O)cc(N[C@H](c2ccccc2)C(F)(F)F)[nH]c1=O` [Compound 52, (R)-3-isopropyl-6-((2,2,2-trifluoro-1-phenylethyl)amino)pyrimidine-2,4(1H,3H)-dione], the IC50 was less than 1000 nM.

As for `COC(=O)Cn1c(=O)cc(N[C@@H](C)c2ccccc2)[nH]c1=O` [Compound 86], the IC50 was in the range of 1000 to 15000 nM.

For the compound `CC(C)n1c(=O)cc(N[C@@H](C)c2cccnc2)[nH]c1=O` [Compound 76], the IC50 fell in the range of 1000 to 15000 nM.

Take `C[C@H](Nc1cc(=O)n(C)c(=O)[nH]1)c1ccccc1` [Compound 47]: the IC50 fell in the range of 1000 to 15000 nM.

With `C[C@H](Nc1cc(=O)n([C@@H](C)COCc2ccccc2)c(=O)[nH]1)c1ccccc1` [Compound 91], the IC50 is 1000 to 15000 nM.

Take `COC(=O)N1CCC(n2c(=O)cc(N[C@@H](C)c3ccccc3)[nH]c2=O)CC1` [Compound 13, (S)-methyl 4-(2,6-dioxo-4-(1-phenylethylamino)-2,3-dihydropyrimidin-1(6H)-yl)piperidine-1-carboxylate]: the IC50 was less than 1000 nM.

Regarding `COc1cccc([C@H](C)Nc2[nH]c(=O)n(C(C)C)c(=O)c2F)c1` [Compound 33], the IC50 is less than 1000 nM.

As to `CC(C)n1c(=O)cc(N[C@@H](C)c2ccccc2F)[nH]c1=O` [Compound 26], the IC50 was less than 1000 nM.

As for `CC(C)n1c(=O)cc(N[C@H](c2ccccc2)C2CC2)[nH]c1=O` [Compound 6, (S)-6-((Cyclopropyl(phenyl)methyl)amino)-3-isopropylpyrimidine-2,4(1H,3H)-dione], the IC50 is less than 1000 nM.

`CC[C@@H](C)n1c(=O)cc(N[C@@H](C)c2cccc(OC)c2)[nH]c1=O` [Compound 14, 3-(R)-sec-butyl-6-((S)-1-(3-methoxyphenyl)ethylamino)pyrimidine-2,4(1H,3H)-dione]: the IC50 was less than 1000 nM.

Still in this assay, the particulars now being: pCa75; assay conducted using 0.5 μM myosin, IC50 values below 1.0 μM are approximate; read-out: IC50 (pCa75).
As to `CC(C)n1c(=O)cc(N[C@H](C)c2c(F)cccc2F)[nH]c1=O` [Compound 60R, (R)-6-((1-(2,6-difluorophenyl)ethyl)amino)-3-isopropylpyrimidine-2,4(1H,3H)-dione], the IC50 was more than 39200 nM.

Turning to `COc1cccc([C@H](C)Nc2cc(=O)n(C(C)C)c(=O)[nH]2)c1` [Compound 21], the IC50 worked out at 390 nM.

On to `COc1cccc([C@@H](C)Nc2cc(=O)n(C(C)C)c(=O)[nH]2)c1` [Compound 20R], for which the IC50 was found to be 19600 nM.
